In publication PMC4856274, “Mnn10 Maintains Pathogenicity in Candida albicans by Extending α-1,6-Mannose Backbone to Evade Host Dectin-1 Mediated Antifungal Immunity” (PLoS Pathogens, 2016):

Biological target: T1, Mnn10 (MBP-fused Mnn10) (Candida albicans, UniProt Q59UR2)
T1 construct: non-transmembrane region, residues 70-335, MBP fusion (pMAL-p5X), E. coli BL21 (DE3) pLysS, amylose resin; tag kept
Experiment: mannosyltransferase assay, ANTS labelling of products, FACE gel
Format: biochemical
Details: 10 mM α-1,6-D-mannobiose, 5 mM GDP-D-mannose, 10 mM MnCl2, 50 mM HEPES pH 7.2, 30 °C, 1 h

T1 sequence (Q59UR2 entry or part of it): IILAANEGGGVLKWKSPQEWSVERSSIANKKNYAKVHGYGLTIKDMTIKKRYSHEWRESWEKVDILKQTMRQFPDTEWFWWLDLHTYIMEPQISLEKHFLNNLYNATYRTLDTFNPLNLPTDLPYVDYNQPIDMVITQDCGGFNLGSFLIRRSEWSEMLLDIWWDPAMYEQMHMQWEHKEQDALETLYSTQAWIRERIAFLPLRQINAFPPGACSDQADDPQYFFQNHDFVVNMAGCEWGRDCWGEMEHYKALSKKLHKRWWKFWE

Row | Compound | mannosyltransferase assay, ANTS labelling of products, FACE gel (acceptor) | mannosyltransferase assay, ANTS labelling of products, FACE gel (donor)
1 | OC[C@H]1O[C@H](OC[C@H]2OC(O)[C@@H](O)[C@@H](O)[C@@H]2O)[C@@H](O)[C@@H](O)[C@@H]1O (stereo partly drawn) [α-1,6-mannobiose] | required α-1,6-linked mannobiose as an acceptor and GDP-mannose as a donor | –
2 | Nc1nc2c(ncn2[C@@H]2O[C@H](COP(=O)(O)OP(=O)(O)O[C@H]3O[C@H](CO)[C@@H](O)[C@H](O)[C@@H]3O)[C@@H](O)[C@H]2O)c(=O)[nH]1 [GDP-mannose] | – | Mnn10 catalyzes the transformation of GDP-mannose to α-1,6-mannobiose to form mannotriose and mannotetraose
